From patent US4232121A, “Process for selecting methine dyes which inhibit cell growth” (Eastman Kodak Company, priority 1978, dated 1980)
Like-named read-outs stand apart in the source and are kept apart here.

Key:
[1] = tested on: Bacillus pumilus strain K-1; assay: Inhibition of bacterial growth, filter paper on inoculated agar plates; assay type: cell-based; details: for zone of inhibition at 1000 µM / zone of inhibition at 100 µM: read-out: Diameter of Inhibition
Method: Nutrient broth was prepared by mixing 8 grams of BACTO dehydrated nutrient broth per liter of distilled water. […] Samples of the nutrient broth were then inoculated with Bacillus pumilus strain K-1 culture. […]
Nutrient agar was prepared by mixing 23 grams of BACTO nutrient agar per liter of distilled water. The nutrient agar was sterilized in the same way as the nutrient broth. After it has cooled to about 45° C. 250 ml of the nutrient agar solution was aeseptically inoculated with 5 ml of the Bacillus pumilus, K-1 culture prepared in (A), above. Plates of the inoculated nutrient agar were then poured and allowed to harden.
[…] To minimize possible photocatalyzed reactions of the dyes, all preparations were performed under yellow lights and all incubations were performed in the dark.
Schleider and Schuell #740-E filter paper (12.7 mm diameter) was dipped in the dye solution, touched to the side of the beaker to removed excess dye, and placed in the center of the inoculated agar plates (prepared in (B) above). […] The plates were then examined to determine if bacterial growth had been affected by the dye-containing filter paper. […]
Control plates were prepared in which the filter paper contained methanol or a 0.2 molar aqueous solution of phenol. […]

[2] = Oxidation potential (Eox) of the dye; assay type: physicochemical; details: Tables I, II, V, VI
[3] = not told
Method: If a published reduction potential is not available, suitable techniques for measuring reduction potential are available and can be used. […] This technique involves measurement at 20° C., of an approximately 10^-4 molar solution of the dye in an electrolyte, such as methanol which is 0.05 molar in lithium chloride, using a dropping mercury electrode. The potential values are reported by reference to a silver-silver chloride electrode in a saturated solution of potassium chloride at 20° C.

Bacillus pumilus (K-1) = tested on: Bacillus pumilus (K-1)
Method: This can be accomplished by contacting a given concentration of the dye with the cells, removing the cells from the dye solution and then comparing the optical density (at λmax) of the remaining dye solution with a control containing the original concentration of the dye. The percentage decrease in optical density indicates the percentage of dye which has been bound to the cells.
The culture was collected by centrifugation at 5,000×g. for 10 minutes, and the resultant pellet was washed several times in cold 0.05 M potassium phosphate buffer, pH 7.0. The pellet was resuspended in the buffer solution to a final optical density of 1.0 at 620 nm as measured with a Bausch and Lomb Spectronic 20.
One-tenth ml of dye solution (1 mg/ml in methanol) was added to a tube containing 5 ml of cell suspension described above and a control tube containing 0.05 M potassium phosphate buffer, pH 7.0. All tubes were well agitated using a Vari-Whirl Mixer (Will Scientific Co.) and then centrifuged at 10,000×g. for 10 minutes.
The percent binding of dye to the cells for each dye, was determined by comparison of the density at λmax of the control supernatant sample with the density at λmax of the supernatant of the cell sample.

Sea Urchin Eggs = assay: Inhibition of cell division in fertilized sea urchin eggs; assay type: cell-based; details: arbitrary scale 0 to 5, 5 most active; dye 10^-5 to 10^-6 molar, 60 minutes after fertilization
Method: To suspensions in filtered sea water of fertilized sea urchin eggs there was added, three minutes after fertilization, methanolic solutions of the dyes in an amount sufficient to yield a final concentration of dye of between 10^-5 and 10^-6 molar. The final concentration of methanol was, at a maximum 1×10^-4 molar. The eggs were visually observed at 60 minutes after fertilization to determine if cell division and the formation of mitotic apparatus had been inhibited. A rating was assigned based on the concentration of dye required to inhibit cell division and synthesis of DNA.

Micrococcus flavus = assay: Inhibition of bacterial growth, filter paper technique; assay type: cell-based; details: Micrococcus flavus, 48 h, read-out: Area of Inhibition (diameter), control
Method: (§1) Schleider and Schuell #740-E filter paper (12.7 mm diameter) was dipped in the dye solution, touched to the side of the beaker to removed excess dye, and placed in the center of the inoculated agar plates (prepared in (B) above). The plates were then incubated at 26° C. for […]. The plates were then examined to determine if bacterial growth had been affected by the dye-containing filter paper. With certain dyes bacterial growth was inhibited in a circular area around the filter paper. With other dyes no such area of inhibition was observed.
(§2) Cultures of various gram-negative and gram-positive bacteria were prepared in nutrient and Tryptic Soy Agar and plates were poured as described in Example 1. Methanolic solutions of cyanine dyes were prepared at 10^-3 molar and applied to the plates using the filter paper technique described in Example 1. Control plates were prepared in which the filter paper contained methanol or a 0.2 molar aqueous solution of phenol. The plates were then incubated at 26° C. or 37° C. for forty-eight hours.

Micrococus luteus = assay: as above; assay type: cell-based; details: 48 h, read-out: Area of Inhibition (diameter), control
Method: as §1, §2

Bacillus megaterium = assay: as above; assay type: cell-based; details: Table VIII; 0.2 M phenol; Tryptic Soy; 37° C./48 hrs
Method: as §1, §2

Proteus vulgaris = assay: as above; assay type: cell-based; details: Table VIII; 0.2 M phenol; 37° C./48 hrs
Method: as §1, §2

Bacillus cereus = assay: as above; assay type: cell-based; details: Bacillus cereus, 48 h, read-out: Area of Inhibition (diameter), control
Method: as §1, §2

[4] = tested on: Escherichia coli, Strain B; assay: as above; assay type: cell-based; details: Table VIII; 0.2 M phenol; 37° C./48 hrs
Method: as §1, §2

Bacillus subtilis = assay: as above; assay type: cell-based; details: 48 h, read-out: Area of Inhibition (diameter), control
Method: as §1, §2

Enterobacter aerogenes = assay: as above; assay type: cell-based; details: Table VIII; 0.2 M phenol; 37° C./48 hrs
Method: as §1, §2

Alcaligenes faecalis = assay: as above; assay type: cell-based; details: Alcaligenes faecalis, 48 h, read-out: Area of Inhibition (diameter), control
Method: as §1, §2

[5] = Bacillus pumilus, K1, 72 h, Tables V and VI, 10^-3 molar, three days
[6] = Bacillus pumilus, K1, Table II, 10^-4 molar, 26° C., forty-eight hours
[7] = Bacillus pumilus, K1, Table IX, 10^-4 M
[8] = Bacillus pumilus, K1, Table IX, 10^-3 M
[9] = Table II, 10^-4 molar, 26° C., forty-eight hours
[10] = Bacillus pumilus, K1, read-out: Diameter of Inhibition

| SMILES | Eox [2] | ER [3] | % Bound (Bacillus pumilus (K-1)) [%] | Activity Rating [1] | reduction potential (ER) [3] [volts] | Sea Urchin Eggs Activity (Sea Urchin Eggs) | further results |
| --- | --- | --- | --- | --- | --- | --- | --- |
| CCN1C(=CC=Cc2oc3ccc(C)cc3[n+]2CC)Oc2ccc(C)cc21 [7,5,5'-dimethyl] | +.96 | -1.28 | – | – | – | – | zone of inhibition at 1000 µM [1, 5]: 27 mm |
| CCN1C(=CC=Cc2oc3cc(Cl)ccc3[n+]2CC)Oc2cc(Cl)ccc21 [7,6,6'-dichloro] | +1.07 | -1.17 | – | – | – | – | zone of inhibition at 1000 µM [1, 5]: 28.5 mm |
| CCN1C(=CC=Cc2oc3cc(OC)ccc3[n+]2CC)Oc2cc(OC)ccc21 [7,6,6'-dimethoxy] | +.84 | -1.31 | – | – | – | – | zone of inhibition at 1000 µM [1, 5]: 28.5 mm |
| CCN1C(=CC=Cc2oc3cc(S(=O)(=O)[O-])ccc3[n+]2CC)Oc2cc(S(=O)(=O)O)ccc21 [7,6,6'-disulfo] | +1.00 | -1.26 | – | – | – | – | Diameter of Inhibition ([1]; Tables V and VI, 10^-3 molar, three days): None |
| CCN1C(=CC=Cc2sc3ccc(Cl)cc3[n+]2CC)Sc2ccc(Cl)cc21 [17,5,5'-dichloro] | +.85 | -.86 | – | – | – | – | zone of inhibition at 1000 µM [1, 5]: 14 mm |
| CCN1C(=CC=Cc2scc(-c3ccccc3)[n+]2CC)SC=C1c1ccccc1 [Dye 3] | – | -1.35 | 11.2 | 29 | -1.35 | +5 | zone of inhibition at 100 µM ([1]; Bacillus pumilus, K1, Table I, 10^-4 molar, 26° C., fifty hours, dark): 18.5 mm; zone of inhibition at 100 µM [1, 6]: 19 mm; zone of inhibition at 100 µM [1, 7]: 19 mm |
| CCN1C(=CC=Cc2oc3cc(OC)ccc3[n+]2CC)Oc2cc(OC)ccc21 [Dye 4] | – | – | 97.2 | 71 | -1.31 | +4 | zone of inhibition at 1000 µM [1, 8]: 28.5 mm |
| CCN1C(=CC=Cc2oc3ccc(C)cc3[n+]2CC)Oc2ccc(C)cc21 [Dye 5] | – | – | 97.6 | 65 | -1.28 | +4 | zone of inhibition at 1000 µM [1, 8]: 27 mm |
| CCC(=Cc1sc2ccc(Cl)cc2[n+]1CC)C=C1Sc2ccc(Cl)cc2N1CC [Dye 15] | – | -1.06 | 74.9 | 04 | -1.06 | +4 | zone of inhibition at 100 µM [1, 6]: 13.5 mm; zone of inhibition at 100 µM [1, 7]: 13.5 mm |
| CCN1C(=Cc2ccc3ccccc3[n+]2CC)C=Cc2ccccc21 [Dye 16] | – | -1.03 | 28.7 | 100 | -1.03 | +5 | zone of inhibition at 100 µM [1, 6]: 25.5 mm; zone of inhibition at 100 µM [1, 7]: 25.5 mm |
| CCN1C(=CC=Cc2sc3cc4ccccc4cc3[n+]2CC)Sc2cc3ccccc3cc21 [Dye 19] | – | – | 100 | – | – | 0 | – |
| CCN1C(=CC=Cc2sc3ccc(Cl)cc3[n+]2CC)Sc2ccc(Cl)cc21 [Dye 20] | – | – | 76.3 | 9 | -0.86 | +3 | zone of inhibition at 1000 µM [1, 8]: 14 mm |
| CCN1C(=CC=CC=Cc2sc3ccccc3[n+]2CC)Sc2ccccc21 [Dye 22] | – | – | 98.4 | – | -0.83 | – | zone of inhibition at 100 µM [1, 6]: 15 mm; zone of inhibition at 100 µM [1, 7]: 15 mm; Activity Rating ([1]; Table IX, 10^-4 M, relative to phenol concentration giving equal diameter, Dye 7 = 100): 11 |
| Clc1ccc2nc3c(nc2c1)N(c1ccccc1)C(=CC=Cc1n(-c2ccccc2)c2nc4ccc(Cl)cc4nc2[n+]1-c1ccccc1)N3c1ccccc1 [Dye 25] | – | – | 92.6 | – | -0.65 | 0 | – |
| CCN1C(=CN=Nc2sc3ccccc3[n+]2CC)Sc2ccccc21 [Dye 26] | > +1.00 | – | 56.3 | 8 | -0.64 | +2 | zone of inhibition at 100 µM [1, 6]: 14.5 mm; zone of inhibition at 100 µM [1, 7]: 14.5 mm |
| CCN1C(=CC=Cc2sc3cc4ccccc4nc3[n+]2CC)Sc2cc3ccccc3nc21 [Dye 27] | > +1.00 | – | – | 0 | -0.63 | 0 | Diameter of Inhibition [1, 9]: None; Diameter of Inhibition ([1]; Table IX, 10^-4 M): None |
| CCN1C(=Cc2ccc3ccccc3[n+]2CC)Sc2cc([N+](=O)[O-])ccc21 [Dye 28] | – | – | 57.3 | 0 | -0.60 | – | Diameter of Inhibition [1, 9]: None; Diameter of Inhibition ([1]; Table IX, 10^-4 M): None |
| Cn1c(-c2ccccc2)c(C=Cc2sc3cc([N+](=O)[O-])c(Cl)cc3[n+]2C)c2ccccc21 [Dye 31] | > +1.00 | – | 54.2 | 0 | -0.41 | 0 | Diameter of Inhibition [1, 9]: None; Diameter of Inhibition ([1]; Table IX, 10^-4 M): None |
| CC[n+]1c(C=Cc2c(-c3cccnc3)n(C)c3ccccc23)sc2cc([N+](=O)[O-])ccc21 [Dye 32] | > +1.00 | – | 61.0 | 0 | -0.32 | +2 | Diameter of Inhibition [1, 9]: None; Diameter of Inhibition ([1]; Table IX, 10^-4 M): None |
| Cn1c(-c2ccccc2)c(C=CC=C2C(c3ccccc3)=[N+](C)c3c2ccc2ccccc32)c2ccc3ccccc3c21 [Dye 34] | – | – | 75.0 | 0 | -0.11 | 0 | Diameter of Inhibition ([1]; Table I, 10^-4 molar, 26° C., fifty hours, dark): None; Diameter of Inhibition [1, 9]: None; Diameter of Inhibition ([1]; Table IX, 10^-4 M): None |
| Oc1ccccc1 [Phenol, reference compound] | – | – | – | – | – | – | zone of inhibition at 200000 µM ([1]; Bacillus pumilus, K1, 48 h, read-out: Area of Inhibition (diameter), control): 22 mm; zone of inhibition at 53000 µM [1, 10]: 18 mm; zone of inhibition at 106000 µM [1, 10]: 22 mm; zone of inhibition at 213000 µM [1, 10]: 26 mm; zone of inhibition at 200000 µM (Micrococcus flavus): 16 mm; zone of inhibition at 200000 µM (Micrococus luteus): 15 mm; Area of Inhibition (diameter), control (Bacillus megaterium): Slight; Area of Inhibition (diameter), control (Proteus vulgaris): No; zone of inhibition at 200000 µM (Bacillus cereus): 14 mm; Area of Inhibition (diameter), control [4]: No; zone of inhibition at 200000 µM (Bacillus subtilis): 13 mm; Area of Inhibition (diameter), control (Enterobacter aerogenes): No; zone of inhibition at 200000 µM (Alcaligenes faecalis): 15 mm |
